Test system: IκBα in Hela cells treated with TNFα
Test: Western Analysis of IκBα
Assay type: cell-based
Details: Hela cells treated with compounds for 30 min before addition of TNFα (10 μg/ml), harvested after one hour; mouse anti-IκBα antibody
Method: Hela cells are plated at 6-well plate for 24 hours and treated with compounds for 30 min before the addition of TNFα (10 μg/ml). After one hour, Hela cells are harvested in MPER reagent (Pierce, Rockford, Ill.) containing 400 mM NaCl. Protein from all samples is quantified by the Bradford method. Cell lysates containing 30 μg of protein are electrophoresed on a 12% SDS-PAGE gel and transferred to a PVDF membrane using a Bio Rad liquid transfer apparatus. The PVDF membrane is incubated in TBST (TBS with 0.1% Tween-20) with 3% milk for 15 minutes before the addition of the first antibody, mouse anti-IκBα (Santa Cruz). After overnight incubation, the PVDF membrane is washed 3 times with TBST and incubated with secondary antibodies coupled with horseradish peroxidase (Transduction Labs) for one hour. The PVDF membrane is then washed 3 times with TBST and protein is detected using an enhanced chemiluminescence detection system (Pierce).

Row | SMILES | result in Western analysis of IκBα
1 | NS(=O)(=O)c1ccc(Nc2nccc(-c3ccc(C#Cc4ccccn4)s3)n2)cc1 [compound 35] | slightly positive result
2 | NS(=O)(=O)c1ccc(Nc2nccc(-c3ccc(Cl)s3)n2)cc1 [compound 4] | positive result
3 | COc1ccc(-c2ccnc(Nc3ccc(S(=O)(=O)NCCCN(C)C)c(Cl)c3)n2)cc1F [compound 173] | positive result
4 | COc1ccc(-c2ccnc(Nc3ccc(S(=O)(=O)NCCN(C)C)c(C(F)(F)F)c3)n2)cc1F [compound 167] | slightly positive result
5 | O=S(=O)(NCCCO)c1ccc(Nc2nccc(-c3ccc(C(F)(F)F)cc3)n2)cc1 [compound 68] | positive result
6 | NS(=O)(=O)c1ccc(Nc2nccc(-c3ccc(/C=C/CO)cc3)n2)cc1 [compound 272] | positive result
